The source of these data is US10711244B2, “Mammalian neural plate border stem cells capable of forming neural tube and neural crest cell lineages including central and peripheral neurons” (Max-Planck-Gesellschaft zur Förderung der Wissenschaften …, priority 2012, dated 2020).

Holding throughout (type): cell-based, human
Experiment [1] deals with differentiating hEBs. As to the kind of experiment: NPBSC derivation from EBs with CHIR and/or PMA. The conditions noted are these: EBs treated with the indicated small molecules; morphology, neural markers. As to the method: For generation of NPBSCs from pluripotent stem cells, colonies were detached from the MEFs three to four days after splitting, using 2 mg/ml collagenase IV (Invitrogen). Colony pieces were collected by sedimentation and resuspended in hESC medium (without FGF2) supplemented with 10 μM SB-431542 (Ascent Scientific), 1 μM dorsomorphin (Tocris) for neural induction, as well as 3 μM CHIR 99021 (Axon Medchem), 0.5 μM PMA (Alexis) and cultured in petri dishes. Medium was replaced on day two by N2B27 supplemented with the same small molecule supplements. N2B27 consisted of DMEM-F12 (Invitrogen)/Neurobasal (Invitrogen) 50:50 with 1:200 N2 supplement (Invitrogen), 1:100 B27 supplement lacking vitamin A (Invitrogen) with 1% Penicillin/Streptomycin/Glutamine (PAA). On day four, SB-431542 and dorsomorphin were withdrawn and 150 μM Ascorbic Acid (AA; Sigma) was added to the medium. […] BD Biosciences) 12 well plates at a density of about ten to fifteen per well in NPBSC expansion medium (N2B27 with CHIR, PMA and AA). For coating, Matrigel was diluted to a final dilution of 1:100 in Knockout DMEM (Invitrogen) prior to coat 500 μl per well of a 12 well plate over night. Coated plates were wrapped with Parafilm and kept in the fridge for up to one month. The first split was performed at a 1:5 to 1:10 ratio on day 2 to 4 after plating. All the remaining splitting ratios were 1:10. […]

The test system of experiment [2] is NPBSCs. As to the kind of experiment: Dorsoventral patterning of NPBSCs by CHIR and PMA (qRT-PCR, immunostaining). As for the experimental part:
Total RNA was isolated from cultured cells using RNeasy columns (Qiagen), according to manufacturer instructions, including an on-column DNase digest. Isolated RNA was reverse-transcribed using M-MLV Reverse Transcriptase (USB) with oligo-[…] primers (Metabion) for 1 h at 42° C. qRT-PCR was performed on an Applied Biosystems 7500 Real-Time PCR system with SYBR green PCR master mix (ABI) and 56 ng of original RNA equivalents per 20 μl PCR reaction. Cycling conditions were 40 cycles of 15 s, 95° C./60 s 60° C. Relative expression levels were calculated using the […] method, normalized to biological reference samples and using GAPDH and ACTB as housekeeping genes. Next, we sought to determine if NPBSCs remain competent for WNT and SHH mediated patterning of neural fate commitment. […] SHH signaling opposes dorsal neural fates and specifies ventral fates (Ulloa and Briscoe, 2007). […] Therefore, we conclude that NPBSCs are receptive to WNT and SHH induced dorsoventral patterning of neural fate specification. […] As such, the upregulation of these markers by NPBSCs could also be because of assuming a neural plate border and/or neural crest identity. To test this possibility, we assessed the responsiveness of the CNS progenitor marker SOX1 to SHH and WNT signaling. […] The inhibition by CHIR is the same that induced MSX1 and PAX3 upregulation.
(In general: Quantitative PCR measures a nucleic acid by following its amplification.)

Experiment [3] has as its system NPBSCs. As to the kind of experiment: Neural rosette formation by NPBSC colonies cultured with FGF2. As to the method: (§1) For confocal microscopy, cells were plated on Matrigel-coated glass coverslips. Cultures were fixed for 20 minutes with 4% paraformaldehyde (Electron Microscopy Sciences) in PBS (Invitrogen) and washed twice with PBS. Permeabilization and blocking was done in one step using 0.1% Triton X-100 (Sigma Aldrich), 10% fetal calf serum (PAA) and 1% BSA in PBS for 45 minutes. Plates or coverslips were washed once with 0.1% BSA in PBS and the primary antibodies applied overnight at 4° C. in 1% BSA in PBS. The next day, following one washing step with 0.1% BSA in PBS, secondary antibodies were applied for one hour at room temperature in 1% BSA in PBS. Finally, cells were washed three times with 0.1% BSA in PBS-T (0.05% Tween 20), including a Hoechst counterstaining for nuclei in the second washing step. Cells were mounted in Vectashield mounting medium (Vector Labs) and imaged on a Zeiss PALM/Axiovert fluorescence microscope or a Zeiss LSM700 confocal microscope. If necessary, images were merged using ImageJ and Adobe Photoshop.
We tested this by culturing NPBSC colonies in the presence of FGF2, which has previously been reported to induce neural rosette formation by hEBs that have been plated (Zhang et al., 2001). […] For further characterization, we immunostained for ZO-1, which is expressed by neural rosettes but spatially localized to the apical surface (Elkabetz et al., 2008).

In experiment [4] the test system is NPBSCs. The experiment can be described thus: Directed differentiation of NPBSCs into PNS neurons. As for the experimental part:
For generation of PNS neurons, NPBSCs two days after splitting were switched to N2B27 with only CHIR for two days. Afterward, 10 ng/ml BMP4 (R&D Systems) was added for eight days. Splitting and maturation was performed as described for the generation of motor neurons. For astrocyte and mesenchymal neural crest differentiation, NPBSCs were cultured with DMEM (PAA) with 10% fetal calf serum (PAA) and 1% Pen/Strep/Glutamin (PAA), beginning two days after splitting. Cultures were split twice at a 1:3 ratio when confluent using trypsin (Invitrogen).
as §1
Total RNA was isolated from cultured cells using RNeasy columns (Qiagen), according to manufacturer instructions, including an on-column DNase digest. […] Relative expression levels were calculated using the 2^−2Δ method, normalized to biological reference samples and using GAPDH and ACTB as housekeeping genes. […]

Turning to `Cc1cnc(-c2cnc(NCCNc3ccc(C#N)cn3)nc2-c2ccc(Cl)cc2Cl)[nH]1` [CHIR, 6-[[2-[[4-(2,4-dichlorophenyl)-5-(5-methyl-1H-imidazol-2-yl)-2-pyrimidinyl]amino]ethyl]amino]-3-pyridinecarbonitrile], the “outcome of NPBSC derivation from EBs” value in experiment [1] is “produced many non-neural cells”. The SOX1 expression entry in experiment [2] (6 days) was “inhibited”. For the same molecule, the “expression of dorsal neural progenitor markers MSX1 and PAX3” value in experiment [2] (6 days culture) is “upregulated”.
Take “FGF2: basic fibroblast growth factor, a member of the fibroblast growth factor family”: in experiment [3] (NPBSC colonies cultured with FGF2 for 2 days), the neural rosette formation entry is recorded as “numerous neural rosettes were formed”. Moreover, the ZO-1 expression localization entry in experiment [3] (immunostaining after FGF2 treatment) is “re-oriented to the apical surface of the rosettes”.

B1: BMP4: activator of the BMP signalling pathway (Gene Symbol BMP4), from R&D Systems (protein, UniProt P12644 293-408, looked up)
Bone morphogenetic protein 4: SPKHHSQRARKKNKNCRRHSLYVDFSDVGWNDWIVAPPGYQAFYCHGDCPFPLADHLNSTNHAIVQTLVNSVNSSIPKACCVPTELSAISMLYLDEYDKVVLKNYQEMVVEGCGCR
Regarding B1, the “PERIPHERIN immunostaining of neurons” value in experiment [4] (8 days BMP4) is reported as “majority of the neurons were PERIPHERIN-positive”. Besides, in experiment [4] (8 days treatment), the effect on neurogenesis entry is “did not inhibit neurogenesis”. Further, in experiment [4] (qRT-PCR, 8 days of treatment), the “PERIPHERIN and BRN3A expression” value is on record as “upregulated”.
